Results from ChEMBL document CHEMBL1201862, “PubChem BioAssay data set” (2004).
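Test compounds were applied to cells in 96-well plates for 48 hours at 5 doses. GI50: concentration for 50% inhibition of growth.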 The source made the active and inactive calls. Rule as the data show it: active = GI50 up to about 1.1 µM and inactive = higher.

Legend:
Assay in all cases: inhibition of tumour cell growth, NCI panel, 48 h
786-0 = system: 786-0
A498 = system: A498
A549 = system: A549
ACHN = system: ACHN
CAKI-1 = system: CAKI-1
CCRF-CEM = system: CCRF-CEM
DU-145 = system: DU-145
EKVX = system: EKVX
HCT-116 = system: HCT-116
HCT-15 = system: HCT-15
HL-60 = system: HL-60
HOP-62 = system: HOP-62
HOP-92 = system: HOP-92
HT-29 = system: HT-29
Hs-578T = system: Hs-578T
IGROV-1 = system: IGROV-1
K562 = system: K562
KM12 = system: KM12
LOX IMVI = system: LOX IMVI
M14 = system: M14
MCF7 = system: MCF7
MDA-MB-231 = system: MDA-MB-231
MDA-MB-435 = system: MDA-MB-435
MDA-N = system: MDA-N
MOLT-4 = system: MOLT-4
OVCAR-4 = system: OVCAR-4
OVCAR-5 = system: OVCAR-5
OVCAR-8 = system: OVCAR-8
PC-3 = system: PC-3
RPMI-8226 = system: RPMI-8226
SF-268 = system: SF-268
SK-MEL-28 = system: SK-MEL-28
SK-MEL-2 = system: SK-MEL-2
SK-MEL-5 = system: SK-MEL-5
SK-OV-3 = system: SK-OV-3
SN12C = system: SN12C
SNB-19 = system: SNB-19
SNB-75 = system: SNB-75
SW-620 = system: SW-620
TK-10 = system: TK-10
U-251 = system: U-251
UACC-257 = system: UACC-257
UACC-62 = system: UACC-62
BT-549 = system: BT-549
COLO 205 = system: COLO 205
HCC 2998 = system: HCC 2998
Malme-3M = system: Malme-3M
NCI-H23 = system: NCI-H23
NCI-H460 = system: NCI-H460
NCI-H522 = system: NCI-H522
NCI/ADR-RES = system: NCI/ADR-RES
OVCAR-3 = system: OVCAR-3
RXF 393 = system: RXF 393
SF-295 = system: SF-295
SF-539 = system: SF-539
SR = system: SR
UO-31 = system: UO-31
NCI-H226 = system: NCI-H226

## N#Cc1nc(C(=O)c2ccccc2)oc1N
786-0
  GI50: > 100 µM (inactive)
A498
  GI50: > 100 µM (inactive)
A549
  GI50: > 100 µM (inactive)
ACHN
  GI50: > 100 µM (inactive)
CAKI-1
  GI50: > 100 µM (inactive)
CCRF-CEM
  GI50: > 100 µM (inactive)
DU-145
  GI50: > 100 µM (inactive)
EKVX
  GI50: 65.5 µM (inactive)
HCT-116
  GI50: > 100 µM (inactive)
HCT-15
  GI50: > 100 µM
HL-60
  GI50: > 100 µM (inactive)
HOP-62
  GI50: > 100 µM (inactive)
HOP-92
  GI50: > 100 µM (inactive)
HT-29
  GI50: > 100 µM (inactive)
Hs-578T
  GI50: 20.9 µM (inactive)
IGROV-1
  GI50: 64.9 µM (inactive)
K562
  GI50: > 100 µM (inactive)
KM12
  GI50: > 100 µM (inactive)
LOX IMVI
  GI50: > 100 µM (inactive)
M14
  GI50: > 100 µM (inactive)
MCF7
  GI50: > 100 µM (inactive)
MDA-MB-231
  GI50: > 100 µM (inactive)
MDA-MB-435
  GI50: > 100 µM (inactive)
MDA-N
  GI50: > 100 µM (inactive)
MOLT-4
  GI50: > 100 µM (inactive)
OVCAR-4
  GI50: > 100 µM (inactive)
OVCAR-5
  GI50: > 100 µM (inactive)
OVCAR-8
  GI50: > 100 µM (inactive)
PC-3
  GI50: > 100 µM (inactive)
RPMI-8226
  GI50: > 100 µM (inactive)
SF-268
  GI50: > 100 µM (inactive)
SK-MEL-28
  GI50: > 100 µM (inactive)
SK-MEL-2
  GI50: > 100 µM (inactive)
SK-MEL-5
  GI50: > 100 µM (inactive)
SK-OV-3
  GI50: > 100 µM (inactive)
SN12C
  GI50: > 100 µM (inactive)
SNB-19
  GI50: > 100 µM (inactive)
SNB-75
  GI50: 0.052 µM (active)
SW-620
  GI50: > 100 µM (inactive)
TK-10
  GI50: > 100 µM (inactive)
U-251
  GI50: > 100 µM (inactive)
UACC-257
  GI50: > 100 µM (inactive)
UACC-62
  GI50: > 100 µM (inactive)

## CCCNC(=O)Nc1ccc2c(c1)Cc1cc(N(CCCl)CCCl)ccc1-2
786-0
  GI50: 34.6 µM (inactive)
A498
  GI50: 10.6 µM (inactive)
A549
  GI50: 23.9 µM (inactive)
ACHN
  GI50: 5.47 µM (inactive)
BT-549
  GI50: 22 µM (inactive)
CAKI-1
  GI50: 22.4 µM (inactive)
CCRF-CEM
  GI50: 58.3 µM (inactive)
COLO 205
  GI50: 8.32 µM (inactive)
DU-145
  GI50: 14.6 µM (inactive)
EKVX
  GI50: 18.6 µM (inactive)
HCC 2998
  GI50: 28.2 µM (inactive)
HCT-116
  GI50: 49.9 µM (inactive)
HCT-15
  GI50: 16.5 µM
HL-60
  GI50: 5.94 µM (inactive)
HOP-62
  GI50: 81.5 µM (inactive)
HOP-92
  GI50: 25.2 µM (inactive)
HT-29
  GI50: 3.24 µM (inactive)
Hs-578T
  GI50: 25.6 µM (inactive)
IGROV-1
  GI50: 14.1 µM (inactive)
K562
  GI50: 10.9 µM (inactive)
KM12
  GI50: 22 µM (inactive)
LOX IMVI
  GI50: 12.2 µM (inactive)
M14
  GI50: 79.4 µM (inactive)
MCF7
  GI50: 8.73 µM (inactive)
MDA-MB-231
  GI50: 28.4 µM (inactive)
MDA-MB-435
  GI50: 21.1 µM (inactive)
Malme-3M
  GI50: 36 µM (inactive)
NCI-H23
  GI50: 36.1 µM (inactive)
NCI-H460
  GI50: 7.16 µM (inactive)
NCI-H522
  GI50: 17.6 µM (inactive)
NCI/ADR-RES
  GI50: 36.2 µM (inactive)
OVCAR-3
  GI50: 22.1 µM (inactive)
OVCAR-5
  GI50: 76 µM (inactive)
OVCAR-8
  GI50: 26.9 µM (inactive)
PC-3
  GI50: 25.2 µM (inactive)
RPMI-8226
  GI50: 25.4 µM (inactive)
RXF 393
  GI50: 15.5 µM (inactive)
SF-268
  GI50: 21.8 µM (inactive)
SF-295
  GI50: 14.2 µM (inactive)
SF-539
  GI50: 5.53 µM (inactive)
SK-MEL-28
  GI50: 11.5 µM (inactive)
SK-MEL-2
  GI50: 29.2 µM (inactive)
SK-MEL-5
  GI50: 13.7 µM (inactive)
SN12C
  GI50: 33 µM (inactive)
SNB-19
  GI50: 19.2 µM (inactive)
SR
  GI50: 1.32 µM (inactive)
SW-620
  GI50: 28.6 µM (inactive)
TK-10
  GI50: 61.9 µM (inactive)
U-251
  GI50: 18 µM (inactive)
UACC-257
  GI50: 41.7 µM (inactive)
UACC-62
  GI50: 21.9 µM (inactive)
UO-31
  GI50: 17.4 µM (inactive)

## CCCCCCC1OC23OC1CCC2C(O)CCC3O (stereo unspecified)
786-0
  GI50: > 100 µM (inactive)
A498
  GI50: > 100 µM (inactive)
ACHN
  GI50: 97.7 µM (inactive)
BT-549
  GI50: > 100 µM (inactive)
CAKI-1
  GI50: > 100 µM (inactive)
COLO 205
  GI50: > 100 µM (inactive)
DU-145
  GI50: > 100 µM (inactive)
EKVX
  GI50: > 100 µM (inactive)
HCC 2998
  GI50: > 100 µM (inactive)
HCT-116
  GI50: > 100 µM (inactive)
HCT-15
  GI50: > 100 µM
HL-60
  GI50: > 100 µM (inactive)
HOP-62
  GI50: > 100 µM (inactive)
HT-29
  GI50: > 100 µM (inactive)
Hs-578T
  GI50: > 100 µM (inactive)
IGROV-1
  GI50: > 100 µM (inactive)
K562
  GI50: > 100 µM (inactive)
KM12
  GI50: > 100 µM (inactive)
LOX IMVI
  GI50: > 100 µM (inactive)
MCF7
  GI50: > 100 µM (inactive)
MDA-MB-231
  GI50: > 100 µM (inactive)
MDA-MB-435
  GI50: > 100 µM (inactive)
MOLT-4
  GI50: > 100 µM (inactive)
Malme-3M
  GI50: > 100 µM (inactive)
NCI-H226
  GI50: > 100 µM (inactive)
NCI-H23
  GI50: > 100 µM (inactive)
NCI-H460
  GI50: > 100 µM (inactive)
NCI-H522
  GI50: > 100 µM (inactive)
NCI/ADR-RES
  GI50: > 100 µM (inactive)
OVCAR-3
  GI50: > 100 µM (inactive)
OVCAR-4
  GI50: > 100 µM (inactive)
OVCAR-5
  GI50: > 100 µM (inactive)
OVCAR-8
  GI50: > 100 µM (inactive)
PC-3
  GI50: > 100 µM (inactive)
RPMI-8226
  GI50: > 100 µM (inactive)
RXF 393
  GI50: > 100 µM (inactive)
SF-268
  GI50: > 100 µM (inactive)
SF-295
  GI50: > 100 µM (inactive)
SF-539
  GI50: > 100 µM (inactive)
SK-MEL-28
  GI50: > 100 µM (inactive)
SK-MEL-2
  GI50: > 100 µM (inactive)
SK-MEL-5
  GI50: > 100 µM (inactive)
SN12C
  GI50: > 100 µM (inactive)
SNB-19
  GI50: > 100 µM (inactive)
SNB-75
  GI50: > 100 µM (inactive)
SR
  GI50: > 100 µM (inactive)
SW-620
  GI50: > 100 µM (inactive)
TK-10
  GI50: > 100 µM (inactive)
U-251
  GI50: > 100 µM (inactive)
UACC-257
  GI50: > 100 µM (inactive)
UACC-62
  GI50: > 100 µM (inactive)
UO-31
  GI50: > 100 µM (inactive)

## COc1ccc(CNc2nc3cc(N)cc(N)c3nc2-c2ccccc2)cc1
RPMI-8226
  GI50: 4.13 µM (inactive)

## COC(=O)/C=C1\C(CO[Si](C)(C)C(C)(C)C)OC(n2cc(C)c(=O)n(C)c2=O)C1O[Si](C)(C)C(C)(C)C (stereo unspecified)
786-0
  GI50: > 100 µM (inactive)
A498
  GI50: > 100 µM (inactive)
A549
  GI50: > 100 µM (inactive)
ACHN
  GI50: > 100 µM (inactive)
CCRF-CEM
  GI50: > 100 µM (inactive)
COLO 205
  GI50: > 100 µM (inactive)
DU-145
  GI50: > 100 µM (inactive)
EKVX
  GI50: > 100 µM (inactive)
HCT-116
  GI50: 71.4 µM (inactive)
HCT-15
  GI50: > 100 µM
HOP-62
  GI50: > 100 µM (inactive)
HOP-92
  GI50: > 100 µM (inactive)
HT-29
  GI50: > 100 µM (inactive)
Hs-578T
  GI50: > 100 µM (inactive)
IGROV-1
  GI50: > 100 µM (inactive)
K562
  GI50: > 100 µM (inactive)
KM12
  GI50: > 100 µM (inactive)
LOX IMVI
  GI50: 89.5 µM (inactive)
M14
  GI50: > 100 µM (inactive)
MCF7
  GI50: 27 µM (inactive)
MDA-MB-231
  GI50: > 100 µM (inactive)
MDA-MB-435
  GI50: 62.4 µM (inactive)
MDA-N
  GI50: > 100 µM (inactive)
MOLT-4
  GI50: > 100 µM (inactive)
Malme-3M
  GI50: > 100 µM (inactive)
NCI-H226
  GI50: > 100 µM (inactive)
NCI-H23
  GI50: > 100 µM (inactive)
NCI-H522
  GI50: 78 µM (inactive)
NCI/ADR-RES
  GI50: > 100 µM (inactive)
OVCAR-3
  GI50: > 100 µM (inactive)
OVCAR-5
  GI50: > 100 µM (inactive)
OVCAR-8
  GI50: > 100 µM (inactive)
PC-3
  GI50: 48.5 µM (inactive)
RPMI-8226
  GI50: 78 µM (inactive)
SF-268
  GI50: > 100 µM (inactive)
SF-295
  GI50: > 100 µM (inactive)
SK-MEL-28
  GI50: > 100 µM (inactive)
SK-MEL-2
  GI50: > 100 µM (inactive)
SK-MEL-5
  GI50: 69.7 µM (inactive)
SK-OV-3
  GI50: > 100 µM (inactive)
SN12C
  GI50: > 100 µM (inactive)
SNB-19
  GI50: > 100 µM (inactive)
SNB-75
  GI50: > 100 µM (inactive)
SW-620
  GI50: > 100 µM (inactive)
TK-10
  GI50: > 100 µM (inactive)
U-251
  GI50: 81.7 µM (inactive)
UACC-62
  GI50: > 100 µM (inactive)
UO-31
  GI50: > 100 µM (inactive)
